{"source": "patent US20220017833A1", "about": "“Methods and Compositions for Scavenging Sulfides from Hydrocarbon Fluids and Aqueous Streams” (Nexgen Oilfield Chemicals, LLC, priority 2019, published 2022)", "key": {"[1]": {"assay": "operational testing in a natural gas production facility", "details": "natural gas production facility", "method": "In operational testing in a natural gas production facility, both an anhydrous glyoxy isopropyl aminacetal (GIDAc) scavenging system and an aqueous glyoxy isopropyl diaminol (GIDA) scavenging system were tested in comparison with an industry standard triazine-based scavenger."}, "[2]": {"assay": "Long Reaction Time Capacity Test", "details": "for Min/Eq BT / Min/Eq FD / Min to BT / Min to FD: 20 g test", "excerpt": "(§1) Referring now to FIG. 1, therein is schematically depicted a sulfide scavenger testing system 100 comprising a gas source 2, a flow regulator 4, gas treatment vessel 6, and a sulfide measurement device 8. In one testing embodiment, gas (not shown) is flowed from gas source 2 via gas feed piping 10 into flow regulator 4, which regulates gas flow to gas treatment vessel 6 via regulated gas feed piping 12. The regulated gas flows into gas treatment vessel 6 via a bottom inlet 14 thereof, where it comes into contact with a volume of liquid 16 comprising a sulfide scavenger system (not separately labeled). The gas, having been treated by the liquid, flows out of a top end 18 of gas treatment vessel 6 and flows into sulfide measurement device 8 via treated gas outlet piping 20.\nIn one embodiment, the gas contained in gas source 2 consists substantially of about 15% H2S, and about 3% CO2, with the remainder being Methane. In one embodiment, gas flow from the flow regulator 4 is controlled such that the gas is flowed into the gas treatment vessel 6 at a flow rate of 100 mL/min. up to 500 mL/min. In one embodiment, a gas sparging device, such as a fine pore frit (not shown), is utilized to better distribute the gas into the scavenger liquid. In one embodiment, the gas treatment vessel 6 contains about 20 g of a liquid H2S scavenger, such as one or more diaminols/diaminacetals in a chemical system as described above. In one aspect, to the extent possible, H2S and/or CO2 are scavenged from the gas by the scavenger and the treated (“sweet”) gas exits top end 18 of treatment vessel 6. In one embodiment, sulfide measurement device 8 monitors the concentration of H2S leaving treatment vessel 6. in the gas phase. In other embodiments (not shown), a CO2 measurement device may be similarly employed to monitor the concentration of CO2 leaving treatment vessel 6 in the gas phase.\n(§2) In one embodiment, gas is flowed through sulfide scavenger testing system 100 until the outlet H2S concentration reaches a 4,000 ppm target, at which point the test is concluded. This relative time duration before the target is reached is used to compare H2S scavenger capacity given the kinetics of each sulfide scavenger system. The longer the duration, the better the capacity.\n(§3) In this test, methane containing 15% H2S and 3% CO2 by weight is sparged via a fine pore frit (not shown) at 100 mL/min through a column of 20 g of scavenger solution (See FIG. 1). The fine bubbles produced rise slowly, providing plenty of time, plenty of surface area, and a short path through which the H2S must diffuse to the scavenger in the liquid 16. Detector 8 on the outlet line 20 is used to measure H2S concentration in the exiting gas. The times to first detection (FD), at a threshold of 15 ppm, and to complete breakthrough (BT), at the detector saturation of 4000 ppm (0.4%), are recorded. This test is designed to measure the effective scavenging capacity in applications with long contact times.\nNote that the true total capacity of a scavenger with infinite time to react is simply equal to the stoichiometry of the reaction—the moles of H2S consumable per mole of scavenging molecule, which can be calculated. This Long Reaction Time Capacity measurement falls short of that ultimate stoichiometric capacity and so is still reaction rate dependent, just less so than the Short Reaction Time Capacity Test."}, "[3]": {"assay": "Short Reaction Time Capacity Test", "details": "for Min/Eq BT / Min/Eq FD / Min to BT / Min to FD: 20 g test; for Min to BT / Min to FD: 3.00 g BuOH, GIDA 6.68 g as GID, 3.32 g water", "excerpt": "as §1\nIn one embodiment, gas flow from the flow regulator 4 is controlled such that the gas is flowed into the gas treatment vessel 6 at a flow rate of 100 mL/min. up to 500 mL/min. In one embodiment, a gas sparging device, such as a fine pore frit (not shown), is utilized to better distribute the gas into the scavenger liquid. In one embodiment, the gas treatment vessel 6 contains about 20 g of a liquid H2S scavenger, such as one or more diaminols/diaminacetals in a chemical system as described above. In one aspect, to the extent possible, H2S and/or CO2 are scavenged from the gas by the scavenger and the treated (“sweet”) gas exits top end 18 of treatment vessel 6. In one embodiment, sulfide measurement device 8 monitors the concentration of H2S leaving treatment vessel 6. in the gas phase. In other embodiments (not shown), a CO2 measurement device may be similarly employed to monitor the concentration of CO2 leaving treatment vessel 6 in the gas phase.\nas §2\nas §3, with “The” for “In this test, methane containing 15% H2S and 3% CO2 by weight is sparged via a fine pore frit (not shown) at 100 mL/min through a column of 20 g of scavenger solution (See FIG. 1). The”\nThis test is the same as the Long Reaction Time Capacity Test, but without the gas sparging device, so as to produce larger bubbles, and at a higher feed rate of 200 mL/min, after the first 8 minutes at 100 mL/min. The larger bubbles rise quickly through the liquid 16, providing little time, little surface area, and a long path through which the H2S must diffuse to the scavenger in the liquid. This test is designed to measure the effective scavenging capacity in applications with short contact times. It is far more reaction rate dependent than the Long Reaction Time Capacity and so is a more critical and differentiating test.\nWith triazine, one H2S reacts twice with the same molecule of triazine, replacing one amine, so the rate is “first order”, meaning proportional to the concentration of triazine."}, "[4]": {"details": "Eq/test Triazine 0.068, GIDAc 0.185, GIDA 0.076"}, "[5]": {"details": "GIDAc 9.00 g as GID + 11.00 g MeOH"}, "[6]": {"details": "Triazine 7.50 g + 12.50 g water, GIDAc 13.00 g as GID + 7.00 g MeOH, GIDA 6.68 g as GID, 3.32 g water, 8.00 g MeOH, 2.00 g BuOH"}, "[7]": {"details": "Eq/test GIDAc 0.114, GIDA 0.076 (8.00 g MeOH, 2.00 g BuOH)"}, "[8]": {"details": "Eq/test Triazine 0.068, GIDAc 0.157, GIDA 0.076 (7.50 g MeOH, 2.50 g BuOH)"}, "[9]": {"details": "GIDAc 8.00 g as GID, 9.00 g MeOH, 8.00 g MeOH, 2.00 g BuOH"}, "[10]": {"details": "Triazine 7.50 g + 12.50 g water, GIDAc 11.00 g as GID, 6.00 g MeOH, 7.50 g MeOH, 2.50 g BuOH"}, "[11]": {"details": "Short Reaction Time Capacity Test, Table 2 compositions"}}, "data": [{"smiles": "COC(NC(C)C)C(NC(C)C)OC", "note": "(stereo not drawn) [GIDAc]", "values": [{"measurement": "employable in scavenging H2S from natural gas", "setting": "[1]", "value": "employable"}, {"measurement": "Min/Eq BT", "setting": "[2]; [4]", "value": 707, "unit": "Min/Eq"}, {"measurement": "Min/Eq FD", "setting": "[2]; [4]", "value": 566, "unit": "Min/Eq"}, {"measurement": "Min/Eq BT", "setting": "[2]; GIDAc 0.128 Eq/test", "value": 771, "unit": "Min/Eq"}, {"measurement": "Min/Eq FD", "setting": "[2]; GIDAc 0.128 Eq/test", "value": 592, "unit": "Min/Eq"}, {"measurement": "Min to BT", "setting": "[2]; [5]", "value": 99, "unit": "min"}, {"measurement": "Min to FD", "setting": "[2]; [5]", "value": 76, "unit": "min"}, {"measurement": "Min to BT", "setting": "[2]; [6]", "value": 131, "unit": "min"}, {"measurement": "Min to FD", "setting": "[2]; [6]", "value": 105, "unit": "min"}, {"measurement": "molar capacity at long reaction times (comparison, accounting for molar concentration)", "setting": "[2]; Graph 1 (FIG. 3)", "value": "the same capacity as GIDA at long reaction times"}, {"measurement": "Min/Eq BT", "setting": "[3]; [7]", "value": 438, "unit": "Min/Eq"}, {"measurement": "Min/Eq FD", "setting": "[3]; [7]", "value": 368, "unit": "Min/Eq"}, {"measurement": "Min/Eq BT", "setting": "[3]; [8]", "value": 376, "unit": "Min/Eq"}, {"measurement": "Min/Eq FD", "setting": "[3]; [8]", "value": 319, "unit": "Min/Eq"}, {"measurement": "Min to BT", "setting": "[3]; [9]", "value": 50, "unit": "min"}, {"measurement": "Min to FD", "setting": "[3]; [9]", "value": 42, "unit": "min"}, {"measurement": "Min to BT", "setting": "[3]; [10]", "value": 59, "unit": "min"}, {"measurement": "Min to FD", "setting": "[3]; [10]", "value": 50, "unit": "min"}, {"measurement": "molar capacity at short reaction times (comparison, accounting for molar concentration)", "setting": "[3]; Graph 1 (FIG. 3)", "value": "lower molar capacity at short reaction times"}, {"measurement": "contribution to the BT capacity (coefficient of best fit equation)", "setting": "[3]; [11]", "value": 404, "unit": "minutes per equivalent"}, {"measurement": "contribution to the FD capacity (coefficient of best fit equation)", "setting": "[3]; [11]", "value": 324, "unit": "minutes per equivalent"}]}]}
